These are literature values, as cited in patent US20250213580A1, “Improved Thiopurine Formulation and Treatment Methods” (Douglas Pharmaceuticals Ltd, priority 2022, published 2025).

Molecules are shown by their SMILES. Like-named read-outs stand apart in the source and are kept apart here.

For this data set, the system named is spontaneous colitis in a mouse model. Conditions: intra-rectal administration.

For the molecule `S=c1nc[nH]c2nc[nH]c12` [Formulation 6-MP, 3,7-dihydropurine-6-thione], the effect on colitis result (within 14 days, distal colon) was “did not provide any significant improvement in colitis”.
In the case of `Nc1nc(=S)c2[nH]cnc2[nH]1` [Formulation 6-TG, 2-amino-6,7-dihydro-3H-purine-6-thione], the effect on colitis entry was “no improvement in colitis” (mid-colon or proximal colon) and “ameliorated spontaneous colitis” (within 14 days, distal colon).
